Reference: patent publication US9999659B2, “Treatments using a peptide and/or vaccine” (AFFIRIS AG, priority 2012, dated 2018)
No end group written: not given here.

Columns and labels:
Balb/c mice = assay: Total cholesterol assay in immunized mice; format: in vivo, mouse
Procedure: The peptides were conjugated via the heterobifunctional linker GMBS (4-Maleimidobutyric acid N-hydroxysuccinimide ester) to KLH (Keyhole Limpet Hemocyanin).
5 Balb/c mice were subcutaneously immunized. Mice had access to food and water ad libitum and were kept under a 12 h light/dark cycle. The age of mice at the beginning of experiments was 8 to 10 weeks.
Mice were injected four times in 2 week intervals with 15 μg of net peptide coupled to KLH and adsorbed to Alhydrogel as adjuvant in a volume of 1 ml in total.
Blood was taken approximately 2 weeks after the final injection.
Total cholesterol was measured with the LabAssay™ Cholesterol Kit (Wako).
For this purpose mice have been immunized with HPLC purified peptides coupled to KLH and formulated with an adjuvant (Alum) as vaccines (Sequence-KLH/Alum). In the first experiment, a direct comparison between the original PCSK9 sequence and the novel sequence […] has been performed. Here, mice have been immunized with irrelevant peptide vaccine (irrelevant peptide-KLH/Alum) as a negative control group, original PCSK9 sequence vaccine ([…]-KLH/Alum) and the novel sequence vaccine ([…]-KLH/Alum). The latter group ([…]-KLH/Alum) has been used not only to compare its functionality of the induced antibodies to the functionality of the antibodies generated using the original PCSK9 sequence vaccine ([…]-KLH/Alum), but also as a bridging group between different experiments.
Subsequently, a second experiment has been performed wherein mice have been immunized with irrelevant peptide as a negative control group and all the three novel sequences […], […] and […], all coupled to KLH and formulated as vaccines. As it has been already mentioned above, the mice immunized with the novel sequence ([…]-KLH/Alum) have been used as a bridging group between the experiments. In fact, the bridging group injected with the novel sequence ([…]-KLH/Alum) is behaving in a similar way in both experiments (FIGS. 5A, 5B, 6A and 6B) and most importantly, all three groups immunized with vaccines containing one of the sequences […], […] or […] behave in a very similar way in terms of reduction of plasma total cholesterol levels (FIGS. 6A and 6B).

[1] = tested on: polyclonal antibodies specific for human PCSK9 aa 153-162 or aa 153-165; assay: Binding ELISA: mimotopes coated on plates, detected by mouse sera raised against the original PCSK9 sequence; settings: mimotope coated at 1 μmol/mL; titer = serum dilution where 50% of ODmax is reached
Text: FIGS. 1A and 1B show detection of PCSK9 mimotopes sequences by mouse sera containing polyclonal antibodies specific for human PCSK9 aa 153-162 or aa 153-165
The graphs display median titers from all mimotopes compared to the irrelevant negative control. As a positive control the original human PCSK9 sequence is included: aa 153-162 or aa 153-165. Mimotopes with values over 1:50.000 are considered as good candidates.
Mimotopes were coated on ELISA plates at a concentration of 1 μmol/mL. After blocking unspecific binding (1% BSA in PBS) appropriate dilutions of sera from mice injected with the original human PCSK9 sequence aa 153-162 or aa 153-165 (SEQ ID No. 3) were added and incubated for approximately 1 hour. Subsequently, detection with anti-mouse IgG antibodies was performed. ABTS was used as substrate. OD measurements were performed at 405 nm and titers were defined as the dilution of the serum where 50% of the ODmax is reached.

[2] = tested on: polyclonal antibodies in mouse sera raised against original PCSK9 sequence (aa 153-162 or aa 153-165); assay: Competition ELISA: mimotope competes with the original PCSK9 sequence for binding of polyclonal antibodies in mouse sera; settings: 20 μg peptide incubated with sera; irrelevant peptide = 0% competition
Text: FIGS. 2A and 2B show the ability of PCSK9 mimotopes to compete with the original PCSK9 sequence (aa 153-162 or aa 153-165) for binding polyclonal antibodies in mouse sera raised specifically against the latter.
All mimotopes are compared to the negative group (0% competition by an irrelevant peptide). As a positive control for each competition ELISA the original PCSK9 sequences were used (aa 153-162 or aa 153-165).
The graphs display the ability (in percent) of the mimotopes to compete with the original PCSK9 sequence (aa 153-162 or aa 153-165) for binding polyclonal antibodies raised against the latter.
20 μg of each indicated peptide was incubated with sera from mice injected with original PCSK9 sequence (aa 153-162 or aa 153-165: SEQ ID No. 2). Sera were then incubated on ELISA plates coated with the original PCSK9 sequence (aa 153-162 or aa 153-165: SEQ ID No. 2). Detection was performed with anti-mouse IgG antibodies, ABTS was used as a chromogenic substrate and optical density (OD) was measured at 405 nm.
Mimotopes diminishing >20% subsequent binding of the polyclonal antibodies from the sera to the original human PCSK9 epitope (aa 153-162 or 153-165: SEQ ID No. 3) coated on the ELISA plates were considered as competing mimotopes and as good candidates.

In the case of “VIPWNLERIL: vaccine containing novel sequence VIPWNLERIL (SEQ ID No. 55), coupled to KLH and formulated as vaccine (also: coupled to KLH)”, the “total cholesterol compared to the group injected with vaccine containing the original PCSK9 sequence SIPWNLERIT” value (Balb/c mice; result in words) is reported as “significantly reduce”.
With “SIPWSLERIT-KLH/Alum: novel sequence vaccine: peptide SIPWSLERIT (SEQ ID No. 21) coupled to KLH and formulated with adjuvant Alum (also: coupled to KLH, site not given here)” the “levels of total cholesterol in comparison to the negative control group” value (Balb/c mice; FIGS. 5A and 5B, result in words) was “strongly reduce”, the “% decrease of TC compared to the irrelevant (negative) control group” value (Balb/c mice; first experiment, FIG. 5B, mice immunized with Sequence-KLH/Alum) was 35-40% and the “total cholesterol compared to the group injected with vaccine containing the original PCSK9 sequence SIPWNLERIT” value (Balb/c mice; result in words) was “significant reduction”. The “total cholesterol compared to the group injected with vaccine containing the original PCSK9 sequence SIPWNLERIT” value (Balb/c mice; result in words, listed as SIPWSLERIT) was “significantly reduce”.
In the case of “SVPWNLERIQ: vaccine containing novel sequence SVPWNLERIQ (SEQ ID No. 60), coupled to KLH and formulated as vaccine (also: coupled to KLH)”, the “total cholesterol compared to the group injected with vaccine containing the original PCSK9 sequence SIPWNLERIT” value (Balb/c mice; result in words) is reported as “significantly reduce”.
“32 (SIPWNLDRITPPR; Artificial Sequence, Mimotope) [compound 32]” was tested, and the “Median Titer Binding ELISA (ODmax/2)” value [1] was 151,000 and the “% Competition compared to the related control group” value (from here on “% Competition”) [2] was 53%.
In the case of “45 (SIPWNLERITPAR; Artificial Sequence, Mimotope) [compound 45]”, the “Median Titer Binding ELISA (ODmax/2)” value [1] is reported as 184,000 and the “% Competition” value [2] is reported as 74%.
“26 (SIPWNGERIT; Artificial Sequence, Mimotope) [compound 26]” was tested, and the “Median Titer Binding ELISA (ODmax/2)” value [1] was 56,000 and the “% Competition” value [2] was 52%.
In the case of “72 (VQPWSLERLL; Artificial Sequence, Mimotope) [compound 72]”, the “Median Titer Binding ELISA (ODmax/2)” value [1] is reported as 166,000 and the “% Competition” value [2] is reported as 66%.
With “17 (SIPGNLERIT; Artificial Sequence, Mimotope) [compound 17]” the “Median Titer Binding ELISA (ODmax/2)” value [1] was 21,000 and the “% Competition” value [2] was 0%.
For “30 (SIPWNVERITPPR; Artificial Sequence, Mimotope) [compound 30]”, the “Median Titer Binding ELISA (ODmax/2)” value [1] was 197,000 and the “% Competition” value [2] was 78%.
For “28 (SIPWNDERIT; Artificial Sequence, Mimotope) [compound 28]”, the “Median Titer Binding ELISA (ODmax/2)” value [1] was 131,000 and the “% Competition” value [2] was 71%.
With “68 (VQPWSLERTL; Artificial Sequence, Mimotope) [compound 68]” the “Median Titer Binding ELISA (ODmax/2)” value [1] was 95,000 and the “% Competition” value [2] was 48%.
“70 (SVPWNLEKLT; Artificial Sequence, Mimotope) [compound 70]” was tested, and the “Median Titer Binding ELISA (ODmax/2)” value [1] was 47,000 and the “% Competition” value [2] was 11%.
For “21 (SIPWSLERIT; Artificial Sequence, Mimotope) [compound 21]”, the “Median Titer Binding ELISA (ODmax/2)” value [1] was 147,000 and the “% Competition” value [2] was 73%.
In the case of “50 (SIPWNLERITPPK; Artificial Sequence, Mimotope) [compound 50]”, the “Median Titer Binding ELISA (ODmax/2)” value [1] is reported as 158,000 and the “% Competition” value [2] is reported as 66%.
With “19 (SIPDNLERIT; Artificial Sequence, Mimotope) [compound 19]” the “Median Titer Binding ELISA (ODmax/2)” value [1] was 23,000 and the “% Competition” value [2] was 3%.
For “35 (SIPWNLEDIT; Artificial Sequence, Mimotope) [compound 35]”, the “Median Titer Binding ELISA (ODmax/2)” value [1] was 48,000 and the “% Competition” value [2] was 13%.
With “23 (SIPWQLERITPPR; Artificial Sequence, Mimotope) [compound 23]” the “Median Titer Binding ELISA (ODmax/2)” value [1] was 224,000 and the “% Competition” value [2] was 79%.
“31 (SIPWNLARIT; Artificial Sequence, Mimotope) [compound 31]” was tested, and the “Median Titer Binding ELISA (ODmax/2)” value [1] was 34,000 and the “% Competition” value [2] was 13%.
In the case of “41 (SIPWNLERIA; Artificial Sequence, Mimotope) [compound 41]”, the “Median Titer Binding ELISA (ODmax/2)” value [1] is reported as 189,000 and the “% Competition” value [2] is reported as 80%.
For “62 (SQPWNLERIL; Artificial Sequence, Mimotope) [compound 62]”, the “Median Titer Binding ELISA (ODmax/2)” value [1] was 196,000 and the “% Competition” value [2] was 69%.
For “25 (SIPWNAERIT; Artificial Sequence, Mimotope) [compound 25]”, the “Median Titer Binding ELISA (ODmax/2)” value [1] was 156,000 and the “% Competition” value [2] was 73%.
“6 (VIPWNLERIT; Artificial Sequence, Mimotope) [compound 6]” was tested, and the “Median Titer Binding ELISA (ODmax/2)” value [1] was 12,000 and the “% Competition” value [2] was 51%.
For “53 (VIPWNLERLT; Artificial Sequence, Mimotope) [compound 53]”, the “Median Titer Binding ELISA (ODmax/2)” value [1] was 191,000 and the “% Competition” value [2] was 54%.
“8 (SVPWNLERIT; Artificial Sequence, Mimotope) [compound 8]” was tested, and the “Median Titer Binding ELISA (ODmax/2)” value [1] was 197,000 and the “% Competition” value [2] was 62%.
For “51 (SIPWNLERITPPS; Artificial Sequence, Mimotope) [compound 51]”, the “Median Titer Binding ELISA (ODmax/2)” value [1] was 149,000 and the “% Competition” value [2] was 66%.
For “69 (SQPWSLERTL; Artificial Sequence, Mimotope) [compound 69]”, the “Median Titer Binding ELISA (ODmax/2)” value [1] was 98,000 and the “% Competition” value [2] was 53%.
